From US6355631B1, “Pharmaceutical compositions containing azetidine derivatives, novel azetidine derivatives and their preparation” (Aventis Pharma S.A., priority 2000, dated 2002)

For `O=[SH](=O)N(Cc1ccccc1)CC1CN(C(c2ccc(Cl)cc2)c2ccc(Cl)cc2)C1` [Example 23, N-Benzyl-N-{1-[bis(4-chlorophenyl)methyl]azetidin-3-yl}methylsulfonamide], which melting point is on record?
Its melting point is 171 °C.

For `O=[SH](=O)N(Cc1cc(F)cc(F)c1)C1CN(C(c2ccc(F)cc2)c2ccc(F)cc2)C1` [Example 34, N-{1-[Bis(4-fluorophenyl)methyl]azetidin-3-yl}-N-(3,5-difluorophenyl)methylsulfonamide], which melting point is on record?
The melting point was 98 °C.
